Data: patent US11254680B2, “Cyclic iminopyrimidine derivatives as kinase inhibitors” (ABM Therapeutics Corporation, priority 2017, dated 2022)

Test system: A375 melanoma cells
Assay: Antiproliferation assay in A375 cell line by CellTiter Glo
Format: cell-based
Details: Homo sapiens, A-375, 72 hours or 144 hours
Procedure: In vitro anti-proliferation study of test compounds in A375 cell line by CellTiter Glo. The cells were routinely maintained as a monolayer culture in corresponding culture medium, at 37° C. with 5% CO2 in air.
Harvest the exponential growth cells by trypsin-EDTA digestion. Re-suspend the cell pellet in fresh culture medium, and adjust the concentration to needed (the cell density per well was listed in following form). The cell viability is over 98% by Trypan blue staining. Inoculate cells into 96 wells plates according to the plate map (90 μL/well). Incubate the plates at 37° C. and 5% CO2 overnight. The next day, prepare the 10×compound containing medium according to the plate map. Transfer 10 μL of 10×compound containing medium into each well of the assay plates (the final DMSO concentration is 0.5%). Gently mix the medium and incubate at 37° C. and 5% CO2 for another 72 hours or 144 hours.
Prepare the reagent according to the manufacture's instruction. Add 50 μL CellTiter-Glo Reagent in each well. Mix contents for 2 minutes on an orbital shaker to induce cell lysis. Allow the plate to incubate at room temperature for 10 minutes to stabilize luminescent signal. Transfer 100 μL of reaction contents of each well from the clear plates into white walled/white opaque 96-well plates. Record the luminescence on Envision.
Using the luminescence measurements [time zero (T0), control growth (C), and test growth in the presence of drug at the six concentration levels (Ti)], the percentage growth is calculated at each of the drug concentrations levels.
Percentage growth inhibition (GI) is calculated as: GI (%)═[(Ti-T0)/(C-T0)]×100 for concentrations for which Ti>=T0, and GI (%)═[(Ti-T0)/T0]×100 for concentrations for which Ti<T0. Data were analyzed using the XLFit (Excel) tool, fitting to a 4-parameter equation to generate concentration response curves. Concentration of compound that inhibits 50% of control cell growth (GI50) was back-interpolated when y=50% of net growth of DMSO treated control wells using nonlinear regression with the equation: f(x) 205 [fit=(A+((B−A)/(1+((C/x)^))))], where A is the minimum response (Ymin), B is the maximum response (Ymax), C is the inflection point of the curve (Re GI50) and D is the Hill coefficient. Growth inhibition of 50% (GI50) was calculated at the 50% Growth inhibition on the curve. Index values were the sum of Inhibition rate (IR) at each tested compound concentration.

Compound | GI50 [µM]
CCCS(=O)(=O)Nc1ccnc(Oc2ccc3c(c2)C2=NCCCN2C=N3)c1[N+](=O)[O-] [Compound 22, N-(2-((3,4-Dihydro-2H-pyrimido[1,2-c]quinazolin-10-yl)oxy)-3-nitropyridin-4-yl)propane-1-sulfonamide] | > 1
CCCS(=O)(=O)Nc1c(N)ccc(Oc2ccc3c(c2)C2=NCCCN2C=N3)c1F [Compound 20, N-(6-Amino-3-((3,4-dihydro-2H-pyrimido[1,2-c]quinazolin-10-yl)oxy)-2-fluorophenyl)propane-1-sulfonamide] | > 1
CCCS(=O)(=O)Nc1ccc([N+](=O)[O-])c(Oc2ccc3c(c2)C2=NCCN2C=N3)c1F [Compound 7, N-(3-((2,3-Dihydroimidazo[1,2-c]quinazolin-9-yl)oxy)-2-fluoro-4-nitrophenyl)propane-1-sulfonamide] | > 1
O=S(=O)(CCCO)Nc1cccc(Oc2ccc3c(c2)C2=NCCCN2C=N3)c1Cl [Compound 39, N-(2-Chloro-3-((3,4-dihydro-2H-pyrimido[1,2-c]quinazolin-10-yl)oxy)phenyl)-3-hydroxypropane-1-sulfonamide] | 0.1 to 1
CC1(C)CN2C=Nc3ccc(Oc4cccc(NS(=O)(=O)N5CC[C@@H](F)C5)c4Cl)cc3C2=N1 [Compound 53, (R)—N-(2-Chloro-3-((2,2-dimethyl-2,3-dihydroimidazo[1,2-c]quinazolin-9-yl)oxy)phenyl)-3-fluoropyrrolidine-1-sulfonamide] | < 0.1
CCCS(=O)(=O)Nc1cccc(Oc2ccc3c(c2)C2=NC(C)(C)CN2C=N3)c1Cl [Compound 55, N-(2-Chloro-3-((2,2-dimethyl-2,3-dihydroimidazo[1,2-c]quinazolin-9-yl)oxy)phenyl)propane-1-sulfonamide] | < 0.1
CCN(C)S(=O)(=O)Nc1cccc(Oc2ccc3c(c2)C2=NCCCN2C=N3)c1Cl [Compound 41, N-(2-Chloro-3-((3,4-dihydro-2H-pyrimido[1,2-c]quinazolin-10-yl)oxy)phenyl)-N-ethyl-N-methylamino-1-sulfonamide] | < 0.1
CCCS(=O)(=O)Nc1ccnc(Oc2ccc3c(c2)C2=NCCCN2C=N3)c1C#N [Compound 25, N-(3-Cyano-2-((3,4-dihydro-2H-pyrimido[1,2-c]quinazolin-10-yl)oxy)pyridin-4-yl)propane-1-sulfonamide] | > 1
CCN(C)S(=O)(=O)Nc1cccc(Oc2ccc3c(c2)C2=NCCN2C=N3)c1Cl [Compound 45, N-(2-Chloro-3-((2,3-dihydroimidazo[1,2-c]quinazolin-9-yl)oxy)phenyl)-N-ethyl-N-methylamino-1-sulfonamide] | > 1
O=S(=O)(CCCF)Nc1cccc(Oc2ccc3c(c2)C2=NCCCN2C=N3)c1Cl [Compound 38, N-(2-Chloro-3-((3,4-dihydro-2H-pyrimido[1,2-c]quinazolin-10-yl)oxy)phenyl)-3-fluoropropane-1-sulfonamide] | < 0.1
CN(CCF)S(=O)(=O)Nc1cccc(Oc2ccc3c(c2)C2=NCCN2C=N3)c1Cl [Compound 47, N-(2-Chloro-3-((2,3-dihydroimidazo[1,2-c]quinazolin-9-yl)oxy)phenyl)-(2-fluoroethyl)(methyl)amino-1-sulfonamide] | < 0.1
CCCS(=O)(=O)Nc1cccc(Oc2cc3c(cn2)N=CN2CCCN=C32)c1C#N [Compound 27, N-(2-Cyano-3-((3,4-dihydro-2H-pyrido[4,3-e]pyrimido[1,2-c]pyrimidin-10-yl)oxy)phenyl)propane-1-sulfonamide] | 0.1 to 1
CCCS(=O)(=O)Nc1c(F)cc(F)c(Oc2ccc3c(c2)C2=NCCN2C=N3)c1C#N [Compound 4, N-(2-Cyano-3-((2,3-dihydroimidazo[1,2-c]quinazolin-9-yl)oxy)-4,6-difluorophenyl)propane-1-sulfonamide] | 0.1 to 1
CCCS(=O)(=O)Nc1cccc(N(C)c2cc3c(cn2)N=CN2CCCN=C32)c1C#N [Compound 42, N-(2-Cyano-3-((3,4-dihydro-2H-pyrido[4,3-e]pyrimido[1,2-c]pyrimidin-10-yl)(methyl)amino)phenyl)propane-1-sulfonamide] | > 1
CCCS(=O)(=O)Nc1c([N+](=O)[O-])ccc(Oc2ccc3c(c2)C2=NCCCN2C=N3)c1F [Compound 19, N-(3-((3,4-Dihydro-2H-pyrimido[1,2-c]quinazolin-10-yl)oxy)-2-fluoro-6-nitrophenyl)propane-1-sulfonamide] | > 1
CCCS(=O)(=O)Nc1nccc(Oc2ccc3c(c2)C2=NCCCN2C=N3)c1C#N [Compound 24, N-(3-Cyano-4-((3,4-dihydro-2H-pyrimido[1,2-c]quinazolin-10-yl)oxy)pyridin-2-yl)propane-1-sulfonamide] | > 1
CCCS(=O)(=O)Nc1cccc(Nc2cc3c(cn2)N=CN2CCCN=C32)c1C#N [Compound 43, N-(2-Cyano-3-((3,4-dihydro-2H-pyrido[4,3-e]pyrimido[1,2-c]pyrimidin-10-yl)amino)phenyl)propane-1-sulfonamide] | 0.1 to 1

The remaining lines, values ahead:

GI50 [µM] | Compound
< 0.1 | O=S(=O)(Nc1cccc(Oc2ccc3c(c2)C2=NCCCN2C=N3)c1Cl)N1CC[C@@H](F)C1 [Compound 40, (R)—N-(2-Chloro-3-((3,4-dihydro-2H-pyrimido[1,2-c]quinazolin-10-yl)oxy)phenyl)-3-fluoropyrrolidine-1-sulfonamide]
> 1 | CCCS(=O)(=O)Nc1cc(Oc2ccc3c(c2)C2=NCCN2C=N3)ccc1F [Compound 51, N-(5-((2,3-Dihydroimidazo[1,2-c]quinazolin-9-yl)oxy)-2-fluorophenyl)propane-1-sulfonamide]
> 1 | O=S(=O)(Nc1cc(Oc2ccc3c(c2)C2=NCCN2C=N3)ccc1F)N1CCCC1 [Compound 49, N-(5-((2,3-Dihydroimidazo[1,2-c]quinazolin-9-yl)oxy)-2-fluorophenyl)pyrrolidine-1-sulfonamide]
> 1 | CCCS(=O)(=O)Nc1cccc(Oc2ccc3c(c2)C2=NCCN2C=N3)c1N [Compound 13, N-(2-Amino-3-((2,3-dihydroimidazo[1,2-c]quinazolin-9-yl)oxy)phenyl)propane-1-sulfonamide]
< 0.1 | CC(C)S(=O)(=O)Nc1cccc(Oc2ccc3c(c2)C2=NCCN2C=N3)c1Cl [Compound 44, N-(2-Chloro-3-((2,3-dihydroimidazo[1,2-c]quinazolin-9-yl)oxy)phenyl)propane-2-sulfonamide]
> 1 | CCCS(=O)(=O)Nc1ccc(N)c(Oc2ccc3c(c2)C2=NCCN2C=N3)c1F [Compound 8, N-(4-Amino-3-((2,3-dihydroimidazo[1,2-c]quinazolin-9-yl)oxy)-2-fluorophenyl)propane-1-sulfonamide]
> 1 | CCCS(=O)(=O)Nc1cccc(Oc2ccc3c(c2)C2=NCCCCN2C=N3)c1C#N [Compound 28, N-(2-Cyano-3-((2,3,4,5-tetrahydro-[1,3]diazepino[1,2-c]quinazolin-11-yl)oxy)phenyl)propane-1-sulfonamide]
< 0.1 | O=S(=O)(Nc1cccc(Oc2ccc3c(c2)C2=NCCN2C=N3)c1Cl)N1CCCC1 [Compound 48, N-(2-Chloro-3-((2,3-dihydroimidazo[1,2-c]quinazolin-9-yl)oxy)phenyl)pyrrolidine-1-sulfonamide]
> 1 | CCCS(=O)(=O)Nc1ccc(F)c(Oc2ccc3c(c2)C2=NCCN2C=N3)c1F [Compound 10, N-(3-((2,3-Dihydroimidazo[1,2-c]quinazolin-9-yl)oxy)-2,4-difluorophenyl)propane-1-sulfonamide]
< 0.1 | CC1(C)CN2C=Nc3ccc(Oc4cccc(NS(=O)(=O)N5CCCC5)c4Cl)cc3C2=N1 [Compound 54, N-(2-Chloro-3-((2,2-dimethyl-2,3-dihydroimidazo[1,2-c]quinazolin-9-yl)oxy)phenyl)pyrrolidine-1-sulfonamide]
